Measured values from patent publication US20170296521A1, “PHARMACEUTICAL COMPOSITION FOR SUPPRESSION OF THROMBOEMBOLISM AFTER STENT PLACEMENT” (priority 2014, published 2017).
Where a name gives a salt, the structure may show the parent alone.

System: thrombus formation on stents in arteriovenous shunts
Assay: rat stent thrombosis model (AV shunt with stents), amount of protein in thrombus
Assay type: in vivo
Settings: for dose responsiveness of the antithrombotic effect: Example 1, Spearman's correlation coefficient test, P<0.001; for suppression of thrombus formation (rate of inhibition of amount of protein in thrombus): Example 1, FIG. 1A
Method: Each rat was anesthetized with thiopental sodium (100 mg/mL/kg, i.p.) and placed on a warming mat. 18 minutes after the start of the anesthesia, polyethylene tubes (approximately 34 cm) containing four stents were inserted into the right and left carotid arteries and jugular veins to produce arteriovenous shunts (hereinafter, referred to as “AV shunts”). Blood flow was started in the shunts. 30 minutes after the start of the blood flow, the stents with thrombus attached thereto were taken out, and the amount of protein in the thrombus was measured.
A 0.5% MC solution (10 mL/kg or 15 mL/kg) was orally administered to a control group. […] The collected thrombus-attached stents were stored at −20° C. until protein quantification. […] Then, the anti-FXa activity in the plasma was measured.
Aspirin (5 mg/15 ml/kg) or clopidogrel (3 mg/10 ml/kg) was orally administered to each rat fasted overnight. […] A 0.5% MC solution (10 mL/kg or 15 mL/kg) was orally administered to a control group.
Amount of protein in thrombus: The thrombus-attached stents were placed in 0.9 mL of a 0.1 N NaOH solution containing 2% Na2CO3 and boiled for approximately 30 minutes to solubilize protein.

CC(=O)Oc1ccccc1C(=O)O [aspirin]
rate of suppression of thrombus formation (Example 1, FIG. 2A, 5 mg/kg orally two hours before AV shunting): 40%
rate of suppression of thrombus formation (Example 1, FIG. 2A, 10 mg/kg orally two hours before AV shunting): 47%
significance of the suppression of thrombus formation vs control (Example 1, FIG. 2A, 5 and 10 mg/kg orally, Dunnett's test): no significant effect
suppression of thrombus formation (Example 1, FIG. 2B, 10 mg/kg orally two hours before AV shunting): 63%
suppression of thrombus formation (Example 1, FIG. 2B, 25 mg/kg orally two hours before AV shunting): 64%
suppression of thrombus formation (Example 1, FIG. 2B, 50 mg/kg orally two hours before AV shunting): 70%
suppression of thrombus formation (Example 1, FIG. 2B, 100 mg/kg orally two hours before AV shunting): 83%
dose responsiveness of the antithrombotic effect: dose-dependent
rate of suppression of thrombus formation (Example 2, FIG. 5A, aspirin 5 mg/kg orally alone): 42%

COC(=O)[C@H](c1ccccc1Cl)N1CCc2sccc2C1 [clopidogrel, clopidogrel sulfate]
suppression of thrombus formation (Example 1, FIG. 3, 1 mg/kg orally two hours before AV shunting): 40%
suppression of thrombus formation (Example 1, FIG. 3, 3 mg/kg orally two hours before AV shunting): 47%
suppression of thrombus formation (Example 1, FIG. 3, 10 mg/kg orally two hours before AV shunting): 84%
suppression of thrombus formation (Example 1, FIG. 3, 30 mg/kg orally two hours before AV shunting): 94%
dose responsiveness of the antithrombotic effect: dose-dependent
rate of suppression of thrombus formation (Example 2, FIG. 6A, clopidogrel 3 mg/kg orally alone): 21%

CN1CCc2nc(C(=O)N[C@@H]3C[C@@H](C(=O)N(C)C)CC[C@@H]3NC(=O)C(=O)Nc3ccc(Cl)cn3)sc2C1.Cc1ccc(S(=O)(=O)O)cc1 [edoxaban, N-(5-chloropyridin-2-yl)-N′-[(1S,2R,4S)-4-(dimethylcarbamoyl)-2-(5-methyl-4,5,6,7-tetrahydro[1,3]thiazolo[5,4-c]pyridine-2-carboxamido)cyclohexyl]oxamide]
suppression of thrombus formation (rate of inhibition of amount of protein in thrombus) (0.3 mg/kg orally 30 minutes before AV shunting): 37%
suppression of thrombus formation (rate of inhibition of amount of protein in thrombus) (1 mg/kg orally 30 minutes before AV shunting): 70%
suppression of thrombus formation (rate of inhibition of amount of protein in thrombus) (3 mg/kg orally 30 minutes before AV shunting): 86%
dose responsiveness of the antithrombotic effect: dose-dependent
rate of suppression of thrombus formation (Example 2, FIG. 5A, edoxaban 0.5 mg/kg orally alone): 42%
rate of suppression of thrombus formation (Example 2, FIG. 6A, edoxaban 0.5 mg/kg orally alone): 25%

ticagrelor sulfate
suppression of thrombus formation (Example 1, FIG. 4, 0.3 mg/kg orally two hours before AV shunting): 67%
suppression of thrombus formation (Example 1, FIG. 4, 1 mg/kg orally two hours before AV shunting): 74%
suppression of thrombus formation (Example 1, FIG. 4, 3 mg/kg orally two hours before AV shunting): 89%
dose responsiveness of the antithrombotic effect: dose-dependent
